Test results taken from PMC3775607 (Chembiochem : a European journal of chemical biology, 2012).

Columns and labels:
p38α [1] = molecular target: T1, p38α (Mus musculus, UniProt P47811); assay: competition with covalent DRS probe […] at […], in-gel fluorescence; type: binding
p38α [2] = molecular target: T1, p38α; assay: radiometric kinase assay with GST-ATF2; type: biochemical

T1 sequence (P47811 2-360): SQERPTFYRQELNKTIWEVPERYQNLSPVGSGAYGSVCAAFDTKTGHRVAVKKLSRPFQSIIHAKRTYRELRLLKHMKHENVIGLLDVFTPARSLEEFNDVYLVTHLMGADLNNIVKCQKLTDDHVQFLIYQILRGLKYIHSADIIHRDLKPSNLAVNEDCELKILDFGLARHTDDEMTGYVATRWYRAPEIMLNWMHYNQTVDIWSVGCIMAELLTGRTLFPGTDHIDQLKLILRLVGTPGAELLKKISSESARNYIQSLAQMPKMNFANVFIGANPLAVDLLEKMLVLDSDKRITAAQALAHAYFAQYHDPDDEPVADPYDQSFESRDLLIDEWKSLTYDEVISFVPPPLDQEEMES

Row | IC50 (p38α [2]) [µM] | SMILES | competition with covalent DRS probe 3 at 200 μM, in-gel fluorescence (p38α [1])
1 | – | O=C(/C=C/c1ccc(O)c(O)c1)OCCc1ccccc1 [CAPE, caffeic acid phenethyl ester] | rooperol shows the strongest inhibition, followed closely by the honey bee propolis-derived caffeic acid phenethyl ester (CAPE
2 | 18.6 | Oc1ccc(C#CC/C=C/c2ccc(O)c(O)c2)cc1O [rooperol] | –
